In ChEMBL document CHEMBL1201862, “PubChem BioAssay data set” (2004):
Active and inactive are the calls of the source.

Experiments:
[1] = target: Glyceraldehyde-3-phosphate dehydrogenase (Homo sapiens, UniProt P04406)
[2] = target: T1, Bcl-2-related protein A1 (Mus musculus, UniProt Q07440); experiment: Bfl-1 inhibitors blocking BH3 peptide binding, confirmation, biochemical, TR-FRET, mouse Bfl-1 (AID 621);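 further: TR-FRET binding of GST-Bfl-1 to FITC-labelled Bid peptide via terbium antibody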
T1 sequence (Q07440 whole entry): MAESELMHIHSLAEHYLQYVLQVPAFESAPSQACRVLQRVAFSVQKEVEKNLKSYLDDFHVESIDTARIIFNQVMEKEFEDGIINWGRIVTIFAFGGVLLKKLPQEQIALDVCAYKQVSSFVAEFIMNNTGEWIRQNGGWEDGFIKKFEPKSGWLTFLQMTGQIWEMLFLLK

[3] = target: T1, Bcl-2-related protein A1; experiment: Bfl-1 binding inhibitors, SAR follow-up, biochemical, fluorescence polarization (AID 1070)
[4] = ADAM10 inhibitors, peptide cleavage, dose response, biochemical, QFRET (AID 743254);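 further: ADAM10 enzyme with the DM2 quenched FRET peptide as substrate; EDANS fluorescence gain as the protease cuts the substrate; inhibitor potency against ADAM10 proteolytic activity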
[5] = target: Disintegrin and metalloproteinase domain-containing protein 17 (Homo sapiens, UniProt P78536); experiment: ADAM17 protease inhibitors, dose response, counter-screen for ADAM10 exosite inhibitor project, biochemical, quenched FRET substrate (AID 743253)
Sequence of Disintegrin and metalloproteinase domain-containing protein 17 (P78536 whole entry, the tested form may be a part): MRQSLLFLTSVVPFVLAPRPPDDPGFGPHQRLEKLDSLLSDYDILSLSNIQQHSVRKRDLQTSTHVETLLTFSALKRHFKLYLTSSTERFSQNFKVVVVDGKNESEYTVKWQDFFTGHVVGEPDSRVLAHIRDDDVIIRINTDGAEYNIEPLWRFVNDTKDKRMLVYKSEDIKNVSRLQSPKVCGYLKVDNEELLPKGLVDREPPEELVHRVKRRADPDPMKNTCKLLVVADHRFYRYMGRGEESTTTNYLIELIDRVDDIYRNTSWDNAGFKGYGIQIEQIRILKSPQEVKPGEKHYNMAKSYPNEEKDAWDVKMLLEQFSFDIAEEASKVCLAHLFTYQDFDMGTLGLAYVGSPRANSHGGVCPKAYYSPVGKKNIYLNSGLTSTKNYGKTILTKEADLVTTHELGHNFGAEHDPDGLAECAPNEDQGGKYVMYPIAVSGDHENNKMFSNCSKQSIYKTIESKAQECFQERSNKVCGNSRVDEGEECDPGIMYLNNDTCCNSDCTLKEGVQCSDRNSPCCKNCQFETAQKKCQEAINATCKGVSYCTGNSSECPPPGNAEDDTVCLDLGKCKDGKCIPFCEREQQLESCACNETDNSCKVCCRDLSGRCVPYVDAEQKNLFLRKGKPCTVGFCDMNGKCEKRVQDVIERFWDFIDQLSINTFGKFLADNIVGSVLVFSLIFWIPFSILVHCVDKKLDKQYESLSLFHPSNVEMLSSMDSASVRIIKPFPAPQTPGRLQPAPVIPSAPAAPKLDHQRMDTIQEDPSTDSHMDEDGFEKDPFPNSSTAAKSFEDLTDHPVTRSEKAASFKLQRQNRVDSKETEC

[6] = cytotoxicity in HPDE-C7 cells, cell-based, fluorescence, HTS (AID 430); format: functional; conditions: Homo sapiens
[7] = cytotoxicity in KRAS-transformed pancreatic duct cells, primary screen, cell-based, fluorescence, HTS (AID 431); format: functional; conditions: Homo sapiens;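 further: cell line used: HPDE-C7K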
[8] = target: Prothrombin (Homo sapiens, UniProt P00734); experiment: Thrombin 1536 HTS Dose Response Confirmation. [Related pubchem assays: 1046 (Thrombin 1536 HTS; hits were confirmed in this assay)]; format: functional
[9] = target: E3 ubiquitin-protein ligase Mdm2 (Homo sapiens, UniProt Q00987); experiment: enhancers of MDM2-luciferase reporter signal, concentration-effect titration, project on inhibitors of MDM2 ubiquitin ligase, cellular assay, luminescent readout, 384-well plate format (AID 1394); format: functional;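 further: MDM2 E3 inhibitors raise luminescence so EC50 is for signal enhancement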
Sequence of E3 ubiquitin-protein ligase Mdm2 (Q00987 whole entry): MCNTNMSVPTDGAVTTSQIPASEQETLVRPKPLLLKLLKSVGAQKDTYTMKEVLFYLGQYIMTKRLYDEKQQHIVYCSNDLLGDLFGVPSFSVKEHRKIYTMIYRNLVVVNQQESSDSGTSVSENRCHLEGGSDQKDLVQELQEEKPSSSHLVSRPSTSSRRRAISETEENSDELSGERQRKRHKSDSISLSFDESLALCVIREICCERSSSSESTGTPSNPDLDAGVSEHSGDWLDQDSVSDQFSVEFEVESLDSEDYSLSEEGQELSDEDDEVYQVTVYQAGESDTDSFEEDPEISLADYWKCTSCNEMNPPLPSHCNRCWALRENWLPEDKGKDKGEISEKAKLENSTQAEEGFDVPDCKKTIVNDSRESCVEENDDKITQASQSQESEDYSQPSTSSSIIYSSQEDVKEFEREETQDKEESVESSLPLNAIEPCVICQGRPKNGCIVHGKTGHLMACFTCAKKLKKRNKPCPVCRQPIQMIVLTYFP

[10] = target: T2, Tyrosine-protein phosphatase non-receptor type 7 (Homo sapiens, UniProt P35236); experiment: inhibitors of human HePTP phosphatase, […], biochemical, absorbance, leukemia target (AID 521); format: functional
T2 sequence (P35236 whole entry): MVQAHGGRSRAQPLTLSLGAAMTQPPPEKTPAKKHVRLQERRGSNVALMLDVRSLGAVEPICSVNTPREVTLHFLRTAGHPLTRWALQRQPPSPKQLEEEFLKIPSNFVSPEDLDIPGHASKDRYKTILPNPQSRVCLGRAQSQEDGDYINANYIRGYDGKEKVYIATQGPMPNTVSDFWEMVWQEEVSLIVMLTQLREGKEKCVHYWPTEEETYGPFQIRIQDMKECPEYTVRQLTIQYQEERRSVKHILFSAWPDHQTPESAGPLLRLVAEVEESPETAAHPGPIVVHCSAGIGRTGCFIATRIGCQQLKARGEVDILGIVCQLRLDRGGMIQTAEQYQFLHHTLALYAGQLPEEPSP

[11] = target: Paired box protein Pax-8 (Homo sapiens, UniProt Q06710); experiment: inhibitors of PAX8-driven TPO luciferase reporter, dose response, RMG-I cells, cherry-pick (AID 687027); format: functional, cell-based;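 further: luciferase reporter driven by Pax8 target thyroperoxidase promoter measured by SteadyGlo luminescence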
Sequence of Paired box protein Pax-8 (Q06710 whole entry): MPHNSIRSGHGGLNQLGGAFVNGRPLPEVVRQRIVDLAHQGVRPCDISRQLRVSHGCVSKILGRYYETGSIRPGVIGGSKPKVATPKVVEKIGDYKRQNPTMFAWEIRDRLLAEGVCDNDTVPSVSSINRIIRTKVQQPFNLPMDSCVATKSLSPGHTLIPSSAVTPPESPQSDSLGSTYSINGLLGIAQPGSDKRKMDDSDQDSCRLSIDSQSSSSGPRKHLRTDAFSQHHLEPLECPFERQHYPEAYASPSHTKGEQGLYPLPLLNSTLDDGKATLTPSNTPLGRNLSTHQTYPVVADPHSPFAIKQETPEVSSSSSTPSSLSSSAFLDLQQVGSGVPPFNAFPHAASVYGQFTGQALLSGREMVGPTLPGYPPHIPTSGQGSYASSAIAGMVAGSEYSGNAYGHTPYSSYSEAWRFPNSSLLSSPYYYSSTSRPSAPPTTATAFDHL

[12] = A2780 ovarian cancer cell cytotoxicity, dose response, cytotoxicity control, plate reader, dry powder samples (AID 743046); format: functional, cell-based
[13] = NIH:OVCAR-3 ovarian cancer cell cytotoxicity, dose response, PAX8 inhibitor project, plate reader, dry powder samples (AID 743044); format: functional, cell-based
[14] = cytotoxicity in OVCAR8 ovarian cancer cells, dose response, PAX8 project, cell-based, plate reader, dry powder samples (AID 743197); format: functional; conditions: OVCAR-8
[15] = Luminescence Cell-Based Dose Confirmation HTS to Identify Inhibitors of Polyadenylation.; format: functional
[16] = target: Bifunctional protein GlmU (Mycobacterium tuberculosis, UniProt P9WMN3); experiment: Inhibitors of Mycobacterial Glucosamine-1-phosphate acetyl transferase (GlmU). Secondary screen.; parameters: species or system Mycobacterium tuberculosis H37Rv
Sequence of Bifunctional protein GlmU (P9WMN3 whole entry): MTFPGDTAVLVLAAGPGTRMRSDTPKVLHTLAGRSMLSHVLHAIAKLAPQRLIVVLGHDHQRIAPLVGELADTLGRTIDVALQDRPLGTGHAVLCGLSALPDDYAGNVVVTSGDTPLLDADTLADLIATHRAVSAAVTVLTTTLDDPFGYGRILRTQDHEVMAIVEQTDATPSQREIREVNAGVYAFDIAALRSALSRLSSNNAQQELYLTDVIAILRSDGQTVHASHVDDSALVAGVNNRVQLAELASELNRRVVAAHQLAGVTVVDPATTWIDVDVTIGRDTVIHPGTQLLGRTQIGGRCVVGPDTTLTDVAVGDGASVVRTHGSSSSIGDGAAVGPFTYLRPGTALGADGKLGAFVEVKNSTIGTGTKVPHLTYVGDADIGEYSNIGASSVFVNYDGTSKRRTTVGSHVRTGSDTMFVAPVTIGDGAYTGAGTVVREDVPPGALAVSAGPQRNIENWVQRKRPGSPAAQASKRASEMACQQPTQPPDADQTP

Sequence of Glyceraldehyde-3-phosphate dehydrogenase (P04406 whole entry): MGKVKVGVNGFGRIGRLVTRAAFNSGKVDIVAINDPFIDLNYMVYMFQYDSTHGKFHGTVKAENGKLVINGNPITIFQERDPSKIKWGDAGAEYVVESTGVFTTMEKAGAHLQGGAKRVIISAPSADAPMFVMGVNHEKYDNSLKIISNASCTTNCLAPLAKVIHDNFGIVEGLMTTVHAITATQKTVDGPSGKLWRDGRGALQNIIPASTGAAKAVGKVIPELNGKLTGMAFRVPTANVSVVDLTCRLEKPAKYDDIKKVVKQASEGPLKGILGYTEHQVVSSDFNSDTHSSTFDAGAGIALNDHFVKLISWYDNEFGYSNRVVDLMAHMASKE

Structure (SMILES): CCCCN1CCN(C2=C(Cl)C(=O)N(c3ccc(Cl)c(Cl)c3)C2=O)CC1
- IC50 [1]: > 100 µM (not active)
- IC50 [2]: 3.28 µM (active)
- IC50 [3]: 10.5 µM (active)

Structure (SMILES): CN(C)c1ccc(C(CNS(=O)(=O)c2ccc(F)cc2)c2c[nH]c3ccccc23)cc1 (configuration not stated)
- IC50 [4]: > 69.5 µM (inactive)
- IC50 [5]: > 69.5 µM (inactive)

Structure (SMILES): Cc1ccc2nc(-c3cccc(NC(=O)c4ccc5c(c4)OCCO5)c3)oc2c1
- EC50 [6]: 6.12 µM (active)
- EC50 [7]: 6.12 µM (active)

Structure (SMILES): COCCNc1nnc(SCC(=O)c2c[nH]c3ccccc23)s1
- IC50 [8]: > 50 µM (not active)

Structure (SMILES): COC(=O)C1=C(C(=O)OC)[C@@H]2N(C)c3ccc(OC)cc3[C@@]23C[C@@H](C(=O)OC)NC3=N1
- EC50 [9]: 1.09 µM (not active)

Structure (SMILES): Cc1ccc(OCC(=O)Nc2ccc(-c3nnc(-c4ccco4)o3)cc2)cc1
- IC50 [10]: > 100 µM (not active)

Structure (SMILES): C[C@H]1CCCCO[C@@H](CN(C)S(=O)(=O)c2cccs2)[C@@H](C)CN([C@@H](C)CO)C(=O)c2cc(NS(=O)(=O)c3ccc(Cl)cc3)ccc2O1
- AC50 [11]: 7.93 µM (active)
- AC50 [12]: 14.1 µM (active)
- AC50 [13]: 42.6 µM (active)
- AC50 [14]: > 70 µM (inactive)

Structure (SMILES): CCc1nc(O)c2ccsc2n1
- IC50 [8]: > 50 µM (not active)

Structure (SMILES): O=C(COC(=O)Cc1ccc(S(=O)(=O)N2CCOCC2)s1)NCc1ccccc1
- EC50 [15]: 39.8 µM (active)

Structure (SMILES): CN1CCN(C(=S)NC(=O)c2ccc(Cl)cc2)CC1
- IC50 [16]: 132 µM (active)
